Measurements published in ChEMBL document CHEMBL1909046, “DrugMatrix in vitro pharmacology data”.
pIC50, pKi: −log10 of the molar value.

Assays:
[1] = target: Kappa-type opioid receptor (Homo sapiens, UniProt P41145); experiment: DRUGMATRIX: Opiate kappa (OP2, KOP) radioligand binding (ligand: [3H] Diprenorphine); type: cell membranes, HEK293, Membrane; conditions: Not Active = under 50% inhibition at 10 µM; for IC50: hek293
[2] = target: T1, Receptor-type tyrosine-protein phosphatase C (Homo sapiens, UniProt P08575); parameters: species or system Escherichia coli;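 note: inhibition of CD45 enzyme activity measured using DiFMUP as substrate; in other assays of this panel Not Active means under 50% inhibition at 10 µM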
T1 sequence (P08575 whole entry): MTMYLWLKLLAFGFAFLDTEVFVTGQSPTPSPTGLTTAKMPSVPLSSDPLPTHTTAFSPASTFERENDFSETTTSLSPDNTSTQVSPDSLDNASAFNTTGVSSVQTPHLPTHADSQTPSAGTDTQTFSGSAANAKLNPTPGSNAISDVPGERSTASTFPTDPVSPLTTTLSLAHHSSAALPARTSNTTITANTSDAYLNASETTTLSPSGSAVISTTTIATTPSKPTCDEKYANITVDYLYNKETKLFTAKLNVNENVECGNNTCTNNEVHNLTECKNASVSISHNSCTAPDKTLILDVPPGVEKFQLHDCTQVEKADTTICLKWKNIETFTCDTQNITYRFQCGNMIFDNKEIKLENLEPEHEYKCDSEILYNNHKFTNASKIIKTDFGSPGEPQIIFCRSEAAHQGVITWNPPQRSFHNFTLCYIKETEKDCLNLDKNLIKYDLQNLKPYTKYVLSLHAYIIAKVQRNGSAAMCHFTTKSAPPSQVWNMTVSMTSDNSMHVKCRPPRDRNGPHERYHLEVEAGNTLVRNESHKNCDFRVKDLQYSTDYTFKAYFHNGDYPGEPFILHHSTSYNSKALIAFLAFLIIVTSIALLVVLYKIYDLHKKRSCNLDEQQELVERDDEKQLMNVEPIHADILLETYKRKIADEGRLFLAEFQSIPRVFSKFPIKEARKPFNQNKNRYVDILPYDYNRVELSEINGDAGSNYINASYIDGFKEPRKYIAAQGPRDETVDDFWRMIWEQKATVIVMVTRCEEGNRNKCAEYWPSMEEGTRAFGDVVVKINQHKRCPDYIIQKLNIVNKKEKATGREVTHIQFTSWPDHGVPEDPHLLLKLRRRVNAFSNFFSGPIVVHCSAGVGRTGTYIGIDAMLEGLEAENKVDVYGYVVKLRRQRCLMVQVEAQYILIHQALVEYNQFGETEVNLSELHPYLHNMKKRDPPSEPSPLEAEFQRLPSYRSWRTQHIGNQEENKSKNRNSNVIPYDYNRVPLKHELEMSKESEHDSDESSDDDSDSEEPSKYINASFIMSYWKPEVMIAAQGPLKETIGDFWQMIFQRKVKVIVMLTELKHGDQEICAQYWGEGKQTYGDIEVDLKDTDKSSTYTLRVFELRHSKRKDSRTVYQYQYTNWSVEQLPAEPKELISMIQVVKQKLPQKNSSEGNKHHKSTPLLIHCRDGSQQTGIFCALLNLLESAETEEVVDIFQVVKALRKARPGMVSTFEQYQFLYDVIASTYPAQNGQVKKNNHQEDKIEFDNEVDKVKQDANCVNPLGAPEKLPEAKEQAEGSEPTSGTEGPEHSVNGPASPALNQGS

[3] = DRUGMATRIX: ATPase, Na+/K+ enzyme inhibition (substrate: ATP); type: tissue-based, Sus scrofa, Heart; conditions: Not Active = under 50% inhibition at 10 µM
Thromboxane-A synthase = target: T2, Thromboxane-A synthase (Homo sapiens, UniProt P24557); experiment: biochemical; type: tissue-based, Platelet; conditions: platelet;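 note: enzyme inhibition assay with PGH2 supplied as substrate; in other assays of this panel Not Active means under 50% inhibition at 10 µM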
T2 sequence (P24557 whole entry): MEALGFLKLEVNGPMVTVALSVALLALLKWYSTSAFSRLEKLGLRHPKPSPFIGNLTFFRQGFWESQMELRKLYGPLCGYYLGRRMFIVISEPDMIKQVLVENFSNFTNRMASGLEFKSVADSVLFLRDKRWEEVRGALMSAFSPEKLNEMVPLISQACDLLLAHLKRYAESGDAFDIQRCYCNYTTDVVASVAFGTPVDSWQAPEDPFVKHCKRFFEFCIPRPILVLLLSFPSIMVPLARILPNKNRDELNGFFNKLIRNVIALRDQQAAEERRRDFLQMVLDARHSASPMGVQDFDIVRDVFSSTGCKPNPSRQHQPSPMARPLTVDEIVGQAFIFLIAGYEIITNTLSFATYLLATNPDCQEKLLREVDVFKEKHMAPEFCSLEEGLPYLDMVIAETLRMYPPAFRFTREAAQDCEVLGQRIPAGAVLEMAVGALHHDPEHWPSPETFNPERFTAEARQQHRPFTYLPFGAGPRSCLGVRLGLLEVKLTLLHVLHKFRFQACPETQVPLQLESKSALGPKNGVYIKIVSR

Cathepsin G = target: T3, Cathepsin G (Homo sapiens, UniProt P08311); type: tissue-based; conditions: neutrophil;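 note: inhibition of Cathepsin G enzyme activity, tested on an AMC-conjugated peptide substrate; in other assays of this panel Not Active means under 50% inhibition at 10 µM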
T3 sequence (P08311 whole entry): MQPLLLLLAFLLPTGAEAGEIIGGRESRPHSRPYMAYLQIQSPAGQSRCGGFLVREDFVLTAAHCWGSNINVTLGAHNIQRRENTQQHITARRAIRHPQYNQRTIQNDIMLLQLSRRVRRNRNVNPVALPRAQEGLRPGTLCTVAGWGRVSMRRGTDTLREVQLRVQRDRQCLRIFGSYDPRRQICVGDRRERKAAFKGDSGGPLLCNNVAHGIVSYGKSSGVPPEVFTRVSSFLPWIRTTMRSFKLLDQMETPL

B2 bradykinin receptor = target: T4, B2 bradykinin receptor (Homo sapiens, UniProt P30411); type: cell membranes, Membrane; conditions: chem-1; note: in other assays of this panel Not Active means under 50% inhibition at 10 µM
T4 sequence (P30411 whole entry): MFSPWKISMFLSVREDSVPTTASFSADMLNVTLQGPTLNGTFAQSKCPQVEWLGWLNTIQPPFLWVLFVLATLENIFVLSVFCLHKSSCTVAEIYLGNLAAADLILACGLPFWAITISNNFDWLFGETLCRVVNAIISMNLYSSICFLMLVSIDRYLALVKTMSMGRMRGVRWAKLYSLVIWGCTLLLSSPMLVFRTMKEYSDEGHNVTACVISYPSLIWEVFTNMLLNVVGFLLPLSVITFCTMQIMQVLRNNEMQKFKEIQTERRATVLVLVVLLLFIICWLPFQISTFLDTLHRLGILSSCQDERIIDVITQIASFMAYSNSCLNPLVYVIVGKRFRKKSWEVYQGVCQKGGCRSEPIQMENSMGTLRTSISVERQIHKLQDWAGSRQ

Kappa-type opioid receptor, sequence (P41145 whole entry): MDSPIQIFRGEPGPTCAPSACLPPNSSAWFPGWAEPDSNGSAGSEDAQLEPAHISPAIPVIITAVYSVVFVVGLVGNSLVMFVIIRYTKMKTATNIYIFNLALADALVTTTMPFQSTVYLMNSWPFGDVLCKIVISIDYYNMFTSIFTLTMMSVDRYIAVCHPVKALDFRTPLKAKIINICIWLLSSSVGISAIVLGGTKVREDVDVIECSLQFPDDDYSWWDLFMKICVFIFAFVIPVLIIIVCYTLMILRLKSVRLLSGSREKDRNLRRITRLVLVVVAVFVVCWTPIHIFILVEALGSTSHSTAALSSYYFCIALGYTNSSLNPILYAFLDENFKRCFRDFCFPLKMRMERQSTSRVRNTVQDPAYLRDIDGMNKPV

Row | Compound | IC50 [1] | IC50 [2] | IC50 [3] | Ki [3] | IC50 (Thromboxane-A synthase) | IC50 (Cathepsin G) | IC50 (B2 bradykinin receptor) | pIC50 ([1]; read-out: IC50) | pKi ([1]; read-out: Ki)
1 | CC[C@@H](CO)NCCN[C@@H](CC)CO [ETHAMBUTOL] | Not Active | Not Active | Not Active | Not Active | Not Active | Not Active | Not Active | – | –
2 | CC1(C)O[C@@H]2C[C@H]3[C@@H]4C[C@H](F)C5=CC(=O)C=C[C@]5(C)[C@H]4[C@@H](O)C[C@]3(C)[C@]2(C(=O)CO)O1 [FLUNISOLIDE] | Not Active | Not Active | Not Active | Not Active | Not Active | Not Active | Not Active | – | –
3 | CC1(C)O[C@@H]2C[C@H]3[C@@H]4C[C@H](F)C5=CC(=O)C=C[C@]5(C)[C@@]4(F)[C@@H](O)C[C@]3(C)[C@]2(C(=O)CO)O1 [FLUOCINOLONE ACETONIDE] | Not Active | Not Active | Not Active | Not Active | Not Active | Not Active | Not Active | – | –
4 | CC1(C)O[C@@H]2C[C@H]3[C@@H]4C[C@H](F)C5=CC(=O)CC[C@]5(C)[C@H]4[C@@H](O)C[C@]3(C)[C@]2(C(=O)CO)O1 [FLURANDRENOLIDE] | Not Active | Not Active | Not Active | Not Active | Not Active | Not Active | Not Active | – | –
5 | CN(C)c1ccc(C(=C2C=CC(=[N+](C)C)C=C2)c2ccc(N(C)C)cc2)cc1.[Cl-] [GENTIAN VIOLET] | – | Not Active | Not Active | Not Active | Not Active | Not Active | Not Active | 5.81 | 6.21
6 | Cc1ccc(S(=O)(=O)NC(=O)NN2CC3CCCC3C2)cc1 (stereo not given) [GLICLAZIDE] | Not Active | Not Active | Not Active | Not Active | Not Active | Not Active | Not Active | – | –
7 | NC(=O)NO [HYDROXYUREA] | Not Active | Not Active | Not Active | Not Active | Not Active | Not Active | Not Active | – | –
8 | CC(C)Cc1ccc(C(C)C(=O)O)cc1 (stereo not given) [IBUPROFEN] | Not Active | Not Active | Not Active | Not Active | Not Active | Not Active | Not Active | – | –
9 | COc1ccc2c(c1)c(CC(=O)O)c(C)n2C(=O)c1ccc(Cl)cc1 [INDOMETHACIN] | Not Active | Not Active | Not Active | Not Active | Not Active | Not Active | Not Active | – | –
10 | CCc1c2c(nc3ccc(OC(=O)N4CCC(N5CCCCC5)CC4)cc13)-c1cc3c(c(=O)n1C2)COC(=O)[C@]3(O)CC [IRINOTECAN] | Not Active | Not Active | Not Active | Not Active | Not Active | Not Active | Not Active | – | –
11 | CC(C(=O)O)c1cccc(C(=O)c2ccccc2)c1 (stereo not given) [KETOPROFEN] | Not Active | Not Active | Not Active | Not Active | Not Active | Not Active | Not Active | – | –
12 | Nc1ccn([C@@H]2CS[C@H](CO)O2)c(=O)n1 [LAMIVUDINE] | Not Active | Not Active | Not Active | Not Active | Not Active | Not Active | Not Active | – | –
13 | O=S(=O)([O-])CCS.[Na+] [MESNA] | Not Active | Not Active | Not Active | Not Active | Not Active | Not Active | Not Active | – | –
14 | C#C[C@]1(O)CC[C@H]2[C@@H]3CCc4cc(OC)ccc4[C@H]3CC[C@@]21C [MESTRANOL] | Not Active | Not Active | Not Active | Not Active | Not Active | Not Active | Not Active | – | –
15 | CC(=O)Nc1cccc(O)c1 [METACETAMOL] | Not Active | Not Active | Not Active | Not Active | Not Active | Not Active | Not Active | – | –
16 | Cc1ncc([N+](=O)[O-])n1CCO [METRONIDAZOLE] | Not Active | Not Active | Not Active | Not Active | Not Active | Not Active | Not Active | – | –
17 | CC(C)(C(=O)c1cccnc1)c1cccnc1 [METYRAPONE] | Not Active | Not Active | Not Active | Not Active | Not Active | Not Active | Not Active | – | –
18 | Oc1ccc(OCc2ccccc2)cc1 [MONOBENZONE] | Not Active | Not Active | Not Active | Not Active | Not Active | Not Active | Not Active | – | –
19 | CC(C)(Oc1ccc(C2CCCc3ccccc32)cc1)C(=O)O (stereo not given) [NAFENOPIN] | Not Active | Not Active | Not Active | Not Active | Not Active | Not Active | Not Active | – | –
20 | COc1ccc2cc([C@H](C)C(=O)O)ccc2c1 [NAPROXEN] | Not Active | Not Active | Not Active | Not Active | Not Active | Not Active | Not Active | – | –
21 | CC(C)[C@H]1CC[C@H](C(=O)N[C@H](Cc2ccccc2)C(=O)O)CC1 [NATEGLINIDE] | Not Active | Not Active | Not Active | Not Active | Not Active | Not Active | Not Active | – | –
22 | CCN[C@@H]1C[C@H](N)[C@@H](O[C@H]2OC(CN)=CC[C@H]2N)[C@H](O)[C@H]1O[C@H]1OC[C@](C)(O)[C@H](NC)[C@H]1O [NETILMICIN] | Not Active | Not Active | Not Active | Not Active | Not Active | Not Active | Not Active | – | –
